In US6265603A, “Inhibitors of isoprenyl transferase” (Eisai Co., Ltd., priority 1999, dated 2001):

Columns and labels:
[1] = test system: H-ras; assay: Inhibition of H-ras prenylation/processing in whole cells (H-ras (61 L) transformed NIH3T3 fibroblasts, Western blot); format: cell-based; details: for H-ras processing, % inhibition @ 50: @ 50 [μM]; for H-ras processing, % inhibition @ 50 / IC50: H-ras (61 L) transformed NIH3T3 fibroblasts, 24 h, 50 μM lovastatin as 100% reference; for IC50: Mus musculus
Protocol: The ability of compounds of the invention to inhibit H-ras farnesylation was determined. H-ras (61 L) transformed NIH3T3 fibroblasts were generously provided by C. Der, Univ. N. Carolina. These fibroblasts were treated for 24 h with 50 μM lovastatin or vehicle control or the indicated concentrations of inhibitor. Lovastatin is an HMG-CoA reductase inhibitor. HMG-CoA reductase is an essential enzyme in the cellular synthesis of the prenyl groups with which ras proteins are modified. The cells were lysed in 1% NP-40, 5 mM Tris-HCl (pH 8.0), 5 mM EDTA, 0.1 mM N-tosyl-L-phenylalanine chloromethyl ketone, 0.1 mM N-tosyl-L-lysine chloromethyl ketone, and 1 mM phenylmethylsulfonyl fluoride. The lysate was centrifuged (15000×g, 5 min.) and the supernatant was used as a cell extract. Total protein was separated by SDS-PAGE in 15% acrylamide gel. Processed ras can be differentiated from non-processed ras by its mobility in polyacrylamide gels. After transfer to IMMOBILON P™ membrane (Millipore), the blots were probed with LA069 mouse monoclonal antibody to H-ras (Quality Biotech). All Western blots were developed using ECL chemiluminescent reagents (Amersham) and the relative amounts of farnesylated and non-farnesylated ras were quantitated using the inhibition obtained by 50 μM lovastatin as 100% reference.
Sub-micromolar concentrations are sufficient to inhibit farnesylation of ras proteins in whole cells.

[2] = molecular target: FTase (Homo sapiens, UniProt P49354+P49356); assay: In vitro inhibition of FTase-mediated prenylation (recombinant FTase, recombinant H-ras, [3H] farnesylpyrophosphate); format: biochemical; details: 15 min, 37° C.; 3 μM recombinant H-ras, 440 nM [3H] farnesylpyrophosphate
Protocol: (§1) The ability of the disclosed inhibitor compounds to inhibit FTase was measured according to a published prenylation assay (Moores et al., J. Biol Chem. 266:14603 (1991)). Recombinant FTase with 3 μM recombinant H-ras and 440 nM [^3 H] farnesylpyrophosphate were used were used. The inhibitors were diluted in assay buffer, and each assay mixture was incubated 15 min. at 37° C. Where inhibition of GGTase I was measured, GGTase I with 5 μM recombinant, H-ras (61 L, CAIL) and 1 mM [^3 H] geranylgeranyl diphosphate were used.
(§2) Nanomolar concentrations of the indicated compounds were sufficient to inhibit farnesylation of ras proteins in vitro. For screening candidate compounds useful for the treatment of ras-associated tumors, the FTase assay is preferred. […] Substitutions which confer GGTase I specificity as taught herein also produced potent inhibitors of GGTase I.

[3] = molecular target: GGTase I (Homo sapiens, UniProt P49354+P53609); assay: In vitro inhibition of GGTase I-mediated prenylation (H-ras (61 L, CAIL), [3H] geranylgeranyl diphosphate); format: biochemical; details: 5 μM recombinant H-ras (61 L, CAIL), 1 mM [3H] geranylgeranyl diphosphate
Protocol: as §1, §2

[4] = test system: H-ras (61 L) transformed NIH3T3 fibroblasts; assay: Inhibition of tumor growth of H-ras (61 L) transformed NIH3T3 xenograft in athymic nude mice; format: in vivo; details: 100, 50 and 25 mg/kg i.v. daily for 5 days; measured days 7, 10, 14
Protocol: H-ras (61 L) transformed NIH3T3 fibroblasts were grown in Dulbecco's modified Eagle's medium supplemented with 10% heat-inactivated calf serum. 100 U/mL penicillin, 100 μg/mL streptomycin, and 0.75 mg/mL G418 (GIBCO) and incubated at 37° C. in 5% CO2. Cells were harvested from exponential-phase cultures with trypsin-EDTA, centrifuged at 160×g for 5 min, washed once with 10 mL cold Hank's balanced salt solution (HBSS, GIBCO), and resuspended at a concentration of 1×10^6 cells/mL.
Five week old female athymic nude mice were obtained from SLC (3371-8, Kotoummachi, Hamamatsu-shi, Shizuoka 431-11, Japan) and maintained under pathogen-free conditions. The mice were subcutaneously injected in the lateral flank with 1×10^5 H-ras transformed cells/mouse.
Inhibitor compound 1 was suspended in 5% glucose in a total injection volume of 0.2 mL. Three dosage concentrations were prepared, 100, 50 and 25 mg/kg. Compound 1 was intravenously injected daily in the tail vein for 5 consecutive days, starting the day after the implantation (day 0). The control group was injected with vehicle only. Body weight and tumor dimensions were measured at days 7, 10, and 14. Tumor volume was estimated by the following calculation: tumor volume=(0.5)(length×width×width). At day 14, each mouse was euthanized with CO2 (g), and each tumor was excised and weighed. […]

IC50 [2] | IC50 [3] | Compound | IC50 [1] | also measured
 |  | COC(=O)[C@H](CCSC)N(C)Cc1cc(OCC[C@@H](N)CS)ccc1C(C)C [Compound 28] |  | H-ras processing, % inhibition @ 50 [1]: 42%
45 nM | 1900 nM | CSCC[C@H](NC(=O)c1ccccc1OC[C@@H](/C=C/[C@@H](N)CS)C(C)C)C(=O)O [Compound 2] |  | 
93 nM | 3000 nM | CSCC[C@H](NC(=O)c1cccc(OC/C=C/[C@@H](N)CS)c1)C(=O)O [Compound 7] |  | 
 |  | COC(=O)[C@H](CCSC)NC(=O)c1cc(OC[C@@H](N)CS)ccc1-c1ccccc1 [Compound 26] | 3200 nM | 
30 nM | 1900 nM | CSCC[C@H](NC(=O)c1cccc(OC[C@@H](/C=C/[C@@H](N)CS)C(C)C)c1)C(=O)O [Compound 4] |  | 
 |  | COC(=O)[C@H](CCSC)NC(=O)c1cc(OC[C@@H](/C=C/[C@@H](N)CS)C(C)C)ccc1-c1ccccc1 [Compound 23] | 31000 nM | 
 |  | COC(=O)[C@H](CCSC)NC(=O)c1ccc(OC/C=C/[C@@H](N)CS)cc1 [Compound 21] | > 50000 nM | 
500 nM | 1700 nM | CSCC[C@H](NC(=O)c1cc2ccccc2cc1OC[C@@H](/C=C/[C@@H](N)CS)C(C)C)C(=O)O [Compound 3] |  | 
15 nM | 130 nM | CSCC[C@H](NC(=O)c1cc(OC[C@@H](N)CS)ccc1-c1ccccc1)C(=O)O [Compound 14] |  | 
4 nM | 38 nM | CSCC[C@H](NC(=O)c1cc(OCC[C@@H](N)CS)ccc1-c1ccccc1)C(=O)O [Compound 12] |  | 
 |  | COC(=O)[C@H](CCSC)NC(=O)c1cc(OCC[C@@H](C)CS)ccc1C(C)C [Compound 29] | > 50000 nM | 
 |  | COC(=O)[C@H](CCSC)NC(=O)c1cc(COC[C@@H](N)CS)ccc1C(C)C [Compound 27] | 49 nM | 
350 nM | 8900 nM | CSCC[C@@H](C(=O)O)N(C)Cc1cc(OCC[C@@H](N)CS)ccc1C(C)C [Compound 31] |  | 
 |  | COC(=O)[C@H](CCSC)NC(=O)c1cc(OCC[C@@H](N)CS)ccc1-c1ccccc1 [Compound 24] | 298 nM | 
 |  | COC(=O)[C@H](CCSC)NC(=O)c1cc(OC[C@@H](N)CS)ccc1C(C)C [Compound 25] | 3100 nM | 
 |  | COC(=O)[C@H](CCSC)NC(=O)c1ccc(OC[C@@H](/C=C/[C@@H](N)CS)C(C)C)cc1 [Compound 18] | > 50000 nM | 
 |  | COC(=O)[C@H](CCSC)NC(=O)c1cc(OC[C@@H](/C=C/[C@@H](N)CS)C(C)C)ccc1C(C)C [Compound 22] | 122 nM | 
 |  | COC(=O)[C@H](CCSC)NC(=O)c1cc2ccccc2cc1OC/C=C/[C@@H](N)CS [Compound 19] |  | H-ras processing, % inhibition @ 50 [1]: 46%
22 nM | 3800 nM | CSCC[C@H](NC(=O)c1cc(OC[C@@H](/C=C/[C@@H](N)CS)C(C)C)ccc1C(C)C)C(=O)O [Compound 9] |  | 
 |  | COC(=O)C(CCSC)NC(=O)c1ccccc1OC[C@@H](/C=C/[C@@H](N)CS)C(C)C (stereo partly drawn) [Compound 15] | 4100 nM | 
 |  | COC(=O)[C@H](CCSC)NC(=O)c1cccc(OC[C@@H](/C=C/[C@@H](N)CS)C(C)C)c1 [Compound 17] | 3300 nM | 
15 nM | 930 nM | CSCC[C@H](NC(=O)c1cc(COC[C@@H](N)CS)ccc1C(C)C)C(=O)O [Compound 30] |  | 
 |  | COC(=O)C(CCSC)NC(=O)c1cccc(OC/C=C/[C@@H](N)CS)c1 (stereo partly drawn) [Compound 20] |  | H-ras processing, % inhibition @ 50 [1]: 38%
470 nM | 100000 nM | CSCC[C@H](NC(=O)c1cc(OCC[C@@H](C)CS)ccc1C(C)C)C(=O)O [Compound 32] |  | 
21 nM | 390 nM | CSCC[C@H](NC(=O)c1cc(OCC[C@@H](N)CS)ccc1C(C)C)C(=O)O [Compound 11] |  | 
1300 nM | 4200 nM | CSCC[C@H](NC(=O)c1cc2ccccc2cc1OC/C=C/[C@@H](N)CS)C(=O)O [Compound 6] |  | 
6300 nM | 40000 nM | CSCCC(NC(=O)c1ccc(OC[C@@H](/C=C/[C@@H](N)CS)C(C)C)cc1)C(=O)O (stereo partly drawn) [Compound 5] |  | 
 |  | COC(=O)[C@H](CCSC)NC(=O)c1cc(OCC[C@@H](N)CS)ccc1C(C)C [Compound 1] | 39 nM | inhibition of tumor growth / tumor volume (FIG. 1) [4]: inhibition of tumor growth; potency within the series (in words) ([1]; statement in Formulations section, test not specified): the most potent compound of the series
890 nM | > 100000 nM | CSCC[C@H](NC(=O)c1ccc(OC/C=C/[C@@H](N)CS)cc1)C(=O)O [Compound 8] |  | 
